Key:
Type in all cases: cell-based
[1] = system: human articular chondrocytes; experiment: TUNEL staining, rate of apoptosis in chondrocyte cultures; conditions: azaC cultures, 14 days, P<0.01
Procedure: (§1) Chondrocyte cultures were divided into 4 groups.
We measured apoptotic cells using the TUNEL (terminal deoxy-nucleotidyl transferase mediated dUTP nick end labeling) staining method using the In Situ Cell Death Detection Kit, TMR red (Roche, Mannheim, Germany). Following the manufacturer's guidelines, cells were fixed with 4% paraformaldehyde in phosphate buffered saline (PBS) at a cell density of 1×10^6/ml and incubated at room temperature for 10 minutes, and then settled on a slide by centrifugation at a speed of 2,000 rpm for 5 minutes using a cytospin (Cytospin 3; Shandon, Cheshire, UK). Slides were rinsed twice with PBS, and the cells were permeabilized by incubating in permeabilization solution (0.1% Triton X-100 in 0.1% sodium citrate) for 2 minutes on ice. The TUNEL reaction mixture containing terminal deoxynucleotidyl transferase and rhodamine (the labeling dye) was added to the slides and incubated at 37° C. in a humidified chamber in the dark for 60 minutes. The reaction was stopped by a blocking buffer (0.1% Triton X-100/0.5% bovine serum albumin in PBS). Cells were counterstained by 4′,6-diamidino-2-phenylindole (DAPI). The slides were observed under a fluorescence microscope with an excitation wavelength of 580 nm for rhodamine and 365 nm for DAPI. Cell nuclei were stained blue by DAPI, and only apoptotic cells were stained red by rhodamine. Stained cells were counted in 5 microscopic fields (1.566 mm^2/field) on each slide. Data were analyzed using Image-Pro Plus analysis software (Media Cybernetics, Silver Spring, Md.). The rate of apoptosis in chondrocytes was defined as the ratio of red-stained cells (apoptotic cells) to blue-stained cells (total cells).
By using TUNEL staining, the rate of apoptosis in human articular chondrocyte cultures in the control, azaC, and azaC plus PTH groups were compared after 14 days of PTH(1-34) treatment (for the azaC plus PTH group).

[2] = system: human articular chondrocytes; experiment: Dimethylmethylene blue (DMMB) assay of GAG levels in chondrocyte cultures; conditions: azaC group, 3 and 7 days after azaC induction, P<0.01
Procedure: as §1
Alginate beads were dissolved as described above and further digested by papain (300 μg/ml) at 60° C. for 18 hours. The levels of DNA and sulfated glycosaminoglycan (GAG) in the samples were quantified using Hoechst 33258 dye and 1,9-dimethylmethylene blue dye, respectively. A standard curve for the DMMB assay was generated using aqueous chondroitin sulfate C solution (Sigma-Aldrich, St. Louis, Mo.) at concentrations ranging from […].

[3] = system: human articular chondrocytes; experiment: Quantitative real-time PCR of mRNA levels in azaC-induced terminal differentiation culture model; conditions: azaC group
Procedure: Chondrocyte cultures were divided into 4 groups. […] Louis, Mo.) for 48 hours.

[4] = 7 and 10 days after azaC induction, P<0.01
[5] = after 3 days of azaC induction, P<0.01
[6] = after 7 days of azaC induction, P<0.05

With `Nc1ncn([C@@H]2O[C@H](CO)[C@@H](O)[C@H]2O)c(=O)n1` [azaC, 5-azacytidine] the “rate of apoptosis versus control cultures” value [1] was 4.8 fold increase, the “GAG levels versus control” value [2] was “significantly lower” and the “ALP mRNA level” value [3, 4] was 5.3-10.9 times that of control. The “Col10a1 mRNA level” value [3, 4] was 2.3-2.4 times that of control, the Bax expression ([3]; 14 days after azaC induction, P<0.01) was 2.1 times that of control and the “aggrecan mRNA level” value ([3]; after 3 days of azaC induction (15 μg/ml, 48 hours), P<0.05) was 56 % of control. The “Col2a1 mRNA level” value [3, 5] was 46.3 % of control, the IHH expression [3, 5] was 6.5 times that of control and the “Bcl-2 mRNA level” value ([3]; after 3 days, P<0.05) was 3.2 times that of control. The “aggrecan mRNA level” value ([3]; after 7 days of azaC induction, P<0.01) was 31 % of control, the “Col2a1 mRNA level” value [3, 6] was 64.8 % of control and the IHH expression [3, 6] was 2.6 times that of control. For the same compound, the IHH expression ([3]; after 10 days of azaC induction, P<0.05) was 2.7 times that of control and the “Bcl-2 mRNA level” value ([3]; after 10 days, P<0.01) was 4.7 times that of control.
